# Patent publication US20260199371A1, “COORDINATION COMPOUND, COMPOSITIONS, AND USES THEREOF FOR TREATING CANCERS” (HUEIYUAN BIOTECH LLC, priority 2023, published 2026)
# How the values were obtained:
# [1] = system: EMT markers in LoVo-OXAR cells; details: qRT-PCR
# Source text: Vimentin and E-cadherin are molecular markers linked to tumor progression through their roles in EMT, which is a pathological process contributing to migration and invasion of cancer cells and tumor progression. Vimentin is a key component of intermediate filaments, which helps maintain cellular integrity and resistance to stress. E-cadherin plays a role in maintaining epithelial phenotypes by mediating contact inhibition when cells proliferate and reach confluence. To further investigate the influence of the compound (II) on EMT marker expression, western blotting, immunofluorescence detection, and quantitative real-time reverse transcription polymerase chain reaction (qRT-PCR) were performed in LoVo-parental and LoVo-OXAR cells treated with various doses of the compound (II) for 24 hours.
# Total RNA from the cells after the indicated treatments was extracted using the GeneJET RNA purification kit (ThermoFisher Scientific, Lithuania) and reverse transcribed to cDNA using a GScript First-Strand Synthesis Kit, a cDNA synthesis kit, and Oligo-dT primers according to the manufacturer's instructions. RT-PCR was performed using ORA^T SEE qPCR Green ROX L Mix, 2× (HighQu, USA). Primers for EMT markers (Vimentin, E-cadherin, TJP1, and FN1) and GAPDH (as endogenous control) were synthesized by Bio-ProTech based the sequences in TABLE 1. The 2^−ΔΔCt method was used to calculate a relative fold change in gene expression. […] TJP1 is a marker of epithelial cells that disappears during EMT and cancer development. In contrast, FN1 is involved in the occurrence and development of various tumors and acts as a critical gene in gastric cancer.
# HA22T-HDACiR cells = details: 0-1250 μg/ml, 24 hours
# LoVo-parental cells = details: high dose 100 mg/kg/day orally, compared to low dose 10 mg/kg/day
# Source text: (§1) Six-week-old male NU/NU mice were purchased from Bio LASCO Taiwan Co., Ltd (Taipei, Taiwan) and randomly assigned into six groups (Groups 1 to 6), each containing three mice. […] All mice were sacrificed on day 30, and the mouse lung, kidney, spleen, and heart were examined for metastatic cancer cells.
# LoVo-OXAR cells = details: high dose 100 mg/kg/day orally, compared to low dose 10 mg/kg/day
# Source text: as §1
# SCC-25 cells = details: 0-1400 μg/ml, 24 hours
# Protocol: Human oral squamous cell carcinoma (OSCC)SCC-25 cells (commercially available from ATCC under the number CRL-1628) were cultured in DMEM/F12 supplemented with 10% FBS.
smiles,measurement,setting,value
CC(=O)[O-].CC(=O)[O-].CC(=O)[O-].CC(=O)[O-].CC(=O)[O-].CC(=O)[O-].O.O.O.O.O=[N+]([O-])[O-].[Cr+3].[Fe+3].[Fe+3].[OH-].[OH-] [compound (II)],E-cadherin mRNA expression,[1],increased
same,FN1 mRNA expression,[1],decreased
same,TJP1 mRNA expression,[1],increased
same,vimentin mRNA expression,[1],decreased
same,viability of HA22T-HDACiR cells,HA22T-HDACiR cells,reduced the viability of both liver cancer cells in a dose-dependent manner
same,"metastasis to the lung, kidney, spleen, and heart",LoVo-parental cells,effectively inhibited the metastasis
same,"metastasis to the lung, kidney, spleen, and heart",LoVo-OXAR cells,effectively inhibited the metastasis
same,viability of SCC-25 cells,SCC-25 cells,reduced the viability of the OSCC cells in a dose-dependent manner
